According to PubChem BioAssay AID2060513 (Molecular Pharmacology Branch, DTP, NCI, 2025):

Tested on: 299254-011-R-J1-PDC complex spheroids viability
Test: Anticancer human tumor 299254-011-R-J1-PDC patient-derived melanoma cell line growth inhibition [GQUAD]
Conditions: for IC50: curve of first compound; for viability, T/C: stronger effect = lower value; active = viability on the fitted dose curve at most 10% of control; inactive = the rest
Procedure, shortened: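 Multi-cell-type spheroids of tumor cells with HUVEC and mesenchymal stem cells, treated with drug combinations. Concentrations descend in half-log steps from near clinical Cmax, or from 10 microM where Cmax is unknown; viability read-out.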

[1] = second compound 0.0316 µM, first compound 0.0316 µM
[2] = second compound 0.0316 µM, first compound 0.1 µM
[3] = second compound 0.0316 µM, first compound 0.316 µM
[4] = second compound 0.0316 µM, first compound 1 µM
[5] = second compound 0.0316 µM, first compound 3.16 µM
[6] = second compound 0.0316 µM, first compound 10 µM
[7] = second compound 0.1 µM, first compound 0.0316 µM
[8] = second compound 0.1 µM, first compound 0.1 µM
[9] = second compound 0.1 µM, first compound 0.316 µM
[10] = second compound 0.1 µM, first compound 1 µM
[11] = second compound 0.1 µM, first compound 3.16 µM
[12] = second compound 0.1 µM, first compound 10 µM
[13] = second compound 0.316 µM, first compound 0.0316 µM
[14] = second compound 0.316 µM, first compound 0.1 µM
[15] = second compound 0.316 µM, first compound 0.316 µM
[16] = second compound 0.316 µM, first compound 1 µM
[17] = second compound 0.316 µM, first compound 3.16 µM
[18] = second compound 0.316 µM, first compound 10 µM
[19] = second compound 1 µM, first compound 0.0316 µM
[20] = second compound 1 µM, first compound 0.1 µM
[21] = second compound 1 µM, first compound 0.316 µM
[22] = second compound 1 µM, first compound 1 µM
[23] = second compound 1 µM, first compound 3.16 µM
[24] = second compound 1 µM, first compound 10 µM
[25] = second compound 3.16 µM, first compound 0.0316 µM
[26] = second compound 3.16 µM, first compound 0.1 µM
[27] = second compound 3.16 µM, first compound 0.316 µM
[28] = second compound 3.16 µM, first compound 1 µM
[29] = second compound 3.16 µM, first compound 3.16 µM
[30] = second compound 3.16 µM, first compound 10 µM
[31] = second compound 10 µM, first compound 0.0316 µM
[32] = second compound 10 µM, first compound 0.1 µM
[33] = second compound 10 µM, first compound 0.316 µM
[34] = second compound 10 µM, first compound 1 µM
[35] = second compound 10 µM, first compound 3.16 µM
[36] = second compound 10 µM, first compound 10 µM
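Also: spheroids exposed to the agents for seven days before readout.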
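For viability, T/C in this document: percent viability relative to DMSO vehicle control wells = 100%.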

O=C(c1cc(Cc2n[nH]c(=O)c3ccccc23)ccc1F)N1CCN(C(=O)C2CC2)CC1 + Cc1cnc(CNC(=O)c2c(=O)c3ccc(N4CCCN(C)CC4)nc3n3c2sc2ccccc23)cn1
< 0.0316 µM: IC50 (second compound 10 µM)
> 10 µM: IC50 (second compound 0.0316 µM) | IC50 (second compound 0.1 µM) | IC50 (second compound 0.316 µM) | IC50 (second compound 1 µM) | IC50 (second compound 3.16 µM)
inactive: viability, T/C [1] 99.3% | viability, T/C [2] 92.8% | viability, T/C [3] 94.1% | viability, T/C [4] 83.4% | viability, T/C [5] 87.2% | viability, T/C [6] 81.5% | viability, T/C [7] 102% | viability, T/C [8] 99.8% | viability, T/C [9] 89.7% | viability, T/C [10] 98.4% | viability, T/C [11] 117% | viability, T/C [12] 81.6% | viability, T/C [13] 81.6% | viability, T/C [14] 97.2% | viability, T/C [15] 91.3% | viability, T/C [16] 102% | viability, T/C [17] 103% | viability, T/C [18] 73.9% | viability, T/C [19] 78% | viability, T/C [20] 79.5% | viability, T/C [21] 82.7% | viability, T/C [22] 73.5% | viability, T/C [23] 75.6% | viability, T/C [24] 66% | viability, T/C [25] 67.1% | viability, T/C [26] 91.5% | viability, T/C [27] 93.7% | viability, T/C [28] 78.8% | viability, T/C [29] 69.5% | viability, T/C [30] 67.9% | viability, T/C [31] 0.42% | viability, T/C [32] 20.2% | viability, T/C [33] 52.3% | viability, T/C [34] 41.7% | viability, T/C [35] 0.43% | viability, T/C [36] 0.33%

O=C(c1cc(Cc2n[nH]c(=O)c3ccccc23)ccc1F)N1CCN(C(=O)C2CC2)CC1 + CN(C)c1ccc(Nc2c3ccc(NC(=O)CCN4CCCC4)cc3nc3cc(NC(=O)CCN4CCCC4)ccc23)cc1
> 10 µM: IC50 (second compound 0.0316 µM) | IC50 (second compound 0.1 µM) | IC50 (second compound 0.316 µM) | IC50 (second compound 1 µM) | IC50 (second compound 3.16 µM) | IC50 (second compound 10 µM)
inactive: viability, T/C [1] 81.9% | viability, T/C [2] 88.2% | viability, T/C [3] 94% | viability, T/C [4] 92.7% | viability, T/C [5] 89.4% | viability, T/C [6] 78.1% | viability, T/C [7] 78.9% | viability, T/C [8] 78.1% | viability, T/C [9] 85.4% | viability, T/C [10] 96.8% | viability, T/C [11] 90.7% | viability, T/C [12] 80.9% | viability, T/C [13] 95.6% | viability, T/C [14] 89.1% | viability, T/C [15] 87.5% | viability, T/C [16] 82.8% | viability, T/C [17] 96.1% | viability, T/C [18] 85.5% | viability, T/C [19] 87.9% | viability, T/C [20] 95.2% | viability, T/C [21] 96% | viability, T/C [22] 101% | viability, T/C [23] 106% | viability, T/C [24] 80.2% | viability, T/C [25] 79.7% | viability, T/C [26] 86.9% | viability, T/C [27] 99.9% | viability, T/C [28] 91.1% | viability, T/C [29] 95.8% | viability, T/C [30] 68.1% | viability, T/C [31] 96.2% | viability, T/C [32] 92.3% | viability, T/C [33] 82.8% | viability, T/C [34] 89.2% | viability, T/C [35] 87.6% | viability, T/C [36] 95%

CC1COCCN1c1cc(C2(S(C)(=N)=O)CC2)nc(-c2ccnc3[nH]ccc23)n1 (stereo not drawn) + CN(C)c1ccc(Nc2c3ccc(NC(=O)CCN4CCCC4)cc3nc3cc(NC(=O)CCN4CCCC4)ccc23)cc1
3.93 µM: IC50 (second compound 0.1 µM)
4.48 µM: IC50 (second compound 1 µM)
6.24 µM: IC50 (second compound 0.0316 µM)
2.91 µM: IC50 (second compound 10 µM)
5.06 µM: IC50 (second compound 0.316 µM)
inactive: viability, T/C [1] 99.6% | viability, T/C [2] 106% | viability, T/C [3] 98% | viability, T/C [4] 93.1% | viability, T/C [5] 75.6% | viability, T/C [6] 32.2% | viability, T/C [7] 116% | viability, T/C [8] 128% | viability, T/C [9] 101% | viability, T/C [10] 77.5% | viability, T/C [11] 59.7% | viability, T/C [12] 27.9% | viability, T/C [13] 105% | viability, T/C [14] 98.2% | viability, T/C [15] 131% | viability, T/C [16] 82.4% | viability, T/C [17] 71.4% | viability, T/C [18] 23.5% | viability, T/C [19] 114% | viability, T/C [20] 95.3% | viability, T/C [21] 85% | viability, T/C [22] 78% | viability, T/C [23] 65.5% | viability, T/C [24] 27.9% | viability, T/C [25] 125% | viability, T/C [26] 100% | viability, T/C [27] 87.3% | viability, T/C [28] 80.4% | viability, T/C [29] 53.2% | viability, T/C [30] 28.3% | viability, T/C [31] 105% | viability, T/C [32] 117% | viability, T/C [33] 101% | viability, T/C [34] 98% | viability, T/C [35] 46.1% | viability, T/C [36] 32%
3.63 µM: IC50 (second compound 3.16 µM)

COc1cccc2c1C(=O)c1c(O)c3c(c(O)c1C2=O)CC(O)(C(=O)CO)CC3OC1CC(N)C(O)C(C)O1 (stereo not drawn) + Cc1[nH]c2ccc(F)cc2c1-c1nc2c3cccnc3c3ncccc3c2[nH]1
inactive: viability, T/C [1] 100% | viability, T/C [2] 91.5% | viability, T/C [3] 82.2% | viability, T/C [4] 90.5% | viability, T/C [5] 62.4% | viability, T/C [6] 25.7% | viability, T/C [7] 91.4% | viability, T/C [8] 91.7% | viability, T/C [9] 88% | viability, T/C [10] 66.4% | viability, T/C [11] 64.7% | viability, T/C [12] 23.8% | viability, T/C [13] 94.2% | viability, T/C [14] 92.1% | viability, T/C [15] 93.3% | viability, T/C [16] 94.7% | viability, T/C [17] 74.4% | viability, T/C [18] 20.4% | viability, T/C [19] 88.9% | viability, T/C [20] 86.9% | viability, T/C [21] 94.2% | viability, T/C [22] 95.3% | viability, T/C [23] 69.1% | viability, T/C [24] 19.3% | viability, T/C [25] 89.9% | viability, T/C [26] 91.7% | viability, T/C [27] 90.1% | viability, T/C [28] 70.3% | viability, T/C [29] 50.2% | viability, T/C [30] 13.4% | viability, T/C [31] 90.2% | viability, T/C [32] 91.3% | viability, T/C [33] 82.6% | viability, T/C [34] 83.3% | viability, T/C [35] 42.6% | viability, T/C [36] 11.9%
4.67 µM: IC50 (second compound 0.0316 µM)
5.32 µM: IC50 (second compound 0.316 µM)
2.99 µM: IC50 (second compound 3.16 µM)
2.56 µM: IC50 (second compound 10 µM)
4.19 µM: IC50 (second compound 0.1 µM)
4.92 µM: IC50 (second compound 1 µM)
